This note sets out measurements from patent publication US7632829B2, “Diazepan derivatives” (Hoffmann-La Roche Inc., priority 2006, dated 2009).

The assay addresses T1, human chemokine receptor 2 isoform B (Homo sapiens, UniProt P41597).
T1 construct: host or cells: CHOK1-CCR2B-A5 (CHO-K1)
T1 sequence (P41597 1-360 isoform P41597-2): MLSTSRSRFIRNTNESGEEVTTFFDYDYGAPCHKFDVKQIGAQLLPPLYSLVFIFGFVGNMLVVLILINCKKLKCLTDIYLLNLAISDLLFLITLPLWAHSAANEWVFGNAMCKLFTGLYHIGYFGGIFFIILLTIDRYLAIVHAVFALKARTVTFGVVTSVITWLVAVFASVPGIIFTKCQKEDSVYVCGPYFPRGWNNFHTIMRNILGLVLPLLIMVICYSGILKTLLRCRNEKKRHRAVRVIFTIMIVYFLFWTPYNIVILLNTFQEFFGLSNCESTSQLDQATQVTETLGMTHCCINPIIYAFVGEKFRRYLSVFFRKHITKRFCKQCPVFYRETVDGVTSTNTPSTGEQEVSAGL
Kind of assay: Calcium mobilization assay (FLIPR, CHOK1-CCR2B-A5 cells, 20 nM MCP-1). To be noted: Ca mobilisation assay, CCR2, antagonist activity vs 20 nM MCP-1. Format: cell-based. In short, it runs like this:
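FLIPR Fluo-4 calcium readout in CHO-K1 cells stably overexpressing human CCR2B; compounds first monitored 80 s for agonist activity, then after 20-30 min at 30 °C challenged with 20 nM MCP-1. Response is max minus basal fluorescence; antagonist value is concentration giving 50% inhibition of specific calcium increase.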
(A change in cytosolic calcium serves as a functional read-out for many receptors and channels.)
What is called IC50 is the concentration that inhibits the measured activity by half. Turning to `O=C(/C=C/c1ccc(Cl)c(Cl)c1)N1CCC(=O)N(CCCN2CCCCC2CO)CC1` (racemic) [Example 227], the IC50 is 0.409 µM.
Turning to `O=C(/C=C/c1ccc(Cl)c(Cl)c1)N1CCC(=O)N(CCCN2CCC(CO)CC2)CC1` [Example 229], the IC50 was 0.154 µM.
To `CC1CC(O)CN(CCCN2CCN(C(=O)C=Cc3ccc(F)c(Cl)c3)CCC2=O)C1` (mixture of isomers) [Example 224, (rac,cis)-1-[(E)-3-(3-Chloro-4-fluoro-phenyl)-acryloyl]-4-[3-(3-hydroxy-5-methyl-piperidin-1-yl)-propyl]-[1,4]diazepan-5-one] belongs 0.014 µM; to `COCC1CCN(CC(O)CCN2CCN(C(=O)/C=C/c3ccc(Cl)c(Cl)c3)CCC2=O)CC1` (racemic) [Example 360], 0.179 µM; to `CC1CCCN(CCCN2CCN(C(=O)/C=C/c3ccc(Cl)c(Cl)c3)CCC2=O)C1` (racemic) [Example 235], 0.112 µM.
To `CC1CCN(CC(O)CCN2CCN(C(=O)/C=C/c3ccc(Cl)c(Cl)c3)CCC2=O)CC1` (racemic) [Example 377] belongs 0.697 µM; to `CC1CCC(N(C)CCCN2CCN(C(=O)/C=C/c3ccc(Cl)c(Cl)c3)CCC2=O)CC1` (mixture of isomers) [Example 54, cis/trans-1-[(E)-3-(3,4-Dichloro-phenyl)-acryloyl]-4-{3-[methyl-(4-methyl-cyclohexyl)-amino]-propyl}-[1,4]diazepan-5-one], 0.747 µM; to `CC1(O)CCCN(CC(O)CN2CCN(C(=O)/C=C/c3ccc(Cl)c(Cl)c3)CCC2=O)C1` (racemic) [Example 303], 0.257 µM.
To `CC1(CO)CCCN(CC(O)CN2CCN(C(=O)/C=C/c3ccc(Cl)c(Cl)c3)CCC2=O)C1` (racemic) [Example 305] belongs 0.192 µM; to `O=C(/C=C/c1ccc(F)c(Cl)c1)N1CCC(=O)N(C[C@@H](O)CN2CCCCC2)CC1` [Example 175, 1-[(E)-3-(3-Chloro-4-fluoro-phenyl)-acryloyl]-4-((S)-2-hydroxy-3-piperidin-1-yl-propyl)-[1,4]diazepan-5-one], 0.096 µM.
On to `CC1CCCN(CC(O)CN2CCN(C(=O)/C=C/c3ccc(Cl)c(Cl)c3)CCC2=O)C1` (racemic) [Example 288], for which the IC50 was 0.206 µM.
Regarding `O=C(/C=C/c1ccc(F)c(Cl)c1)N1CCC(=O)N(CCCCN2CCN(C3CC3)CC2)CC1` [Example 397], the IC50 came out at 0.944 µM.
The figure for `CC(=O)NC1CCN(CCCN2CCN(C(=O)/C=C/c3ccc(Cl)c(Cl)c3)CCC2=O)C1` (racemic) [Example 44, (+/−)-N-[1-(E)-(3-{4-[3-(3,4-Dichloro-phenyl)-acryloyl]-7-oxo-[1,4]diazepan-1-yl}-propyl)-pyrrolidin-3-yl]-acetamide] is 0.646 µM; for `O=C(/C=C/c1ccc(F)c(Cl)c1)N1CCC(=O)N(CCCCN2CC[C@H](F)[C@@H](O)C2)CC1` (relative stereo) [Example 389] it is 0.323 µM; for `O=C1NCC2(CCN(CCCN3CCN(C(=O)/C=C/c4ccc(Cl)c(Cl)c4)CCC3=O)CC2)O1` [Example 84, 8-(3-{4-[(E)-3-(3,4-Dichloro-phenyl)-acryloyl]-7-oxo-[1,4]diazepan-1-yl}-propyl)-1-oxa-3,8-diaza-spiro[4.5]decan-2-one] it is 0.223 µM.
Take `CC1C(O)CCCN1CCCCN1CCN(C(=O)C=Cc2ccc(Cl)c(Cl)c2)CCC1=O` (mixture of isomers) [Example 428, (rac,trans)-1-[(E)3-(3,4-Dichloro-phenyl)-acryloyl]-4-[4-(3-hydroxy-2-methyl-piperidin-1-yl)-butyl]-[1,4]diazepan-5-one]: the IC50 came out at 0.113 µM.
To `COCC1CCCN(CCCCN2CCN(C(=O)/C=C/c3ccc(F)c(Cl)c3)CCC2=O)C1` (racemic) [Example 392] belongs 0.054 µM; to `COCC1CCN(CCCCN2CCN(C(=O)/C=C/c3ccc(Cl)c(Cl)c3)CCC2=O)CC1` [Example 444, 1-[(E)-3-(3,4-Dichloro-phenyl)-acryloyl]-4-[4-(4-methoxymethyl-3-piperidin-1-yl)-butyl]-[1,4]diazepan-5-one], 0.032 µM; to `O=C(/C=C/c1ccc(Cl)c(Cl)c1)N1CCC(=O)N(CCCN2CCC(O)CC2)CC1` [Example 159, 1-[(E)-3-(3,4-Dichloro-phenyl)-acryloyl]-4-[3-(4-hydroxy-piperidin-1-yl)-propyl]-[1,4]diazepan-5-one], 0.258 µM.
The figure for `C[C@@H]1C[C@H](O)CN(C[C@H](O)CN2CCN(C(=O)/C=C/c3ccc(Cl)c(Cl)c3)CCC2=O)C1` (mixture of isomers) [Example 335, 1-[(E)-3-(3,4-Dichloro-phenyl)-acryloyl]-4-[(S)-2-hydroxy-3-(cis-3-hydroxy-5-methyl-piperidin-1-yl)-propyl]-[1,4]diazepan-5-one] is 0.013 µM.
To `O=C(/C=C/c1ccc(Cl)c(Cl)c1)N1CCC(=O)N(CCCN2CCC(c3ccccc3)CC2)CC1` [Example 45, 1-[(E)-3-(3,4-Dichloro-phenyl)-acryloyl]-4-[3-(4-phenyl-piperidin-1-yl)-propyl]-[1,4]diazepan-5-one] belongs 0.013 µM; to `O=C(/C=C/c1cccc(Cl)c1)N1CCC(=O)N(CCCN2CCCCC2)CC1` [Example 188, 1-[(E)-3-(3-Chloro-phenyl)-acryloyl]-4-(3-piperidin-1-yl-propyl)-[1,4]diazepan-5-one], 1.34 µM.
For `N#CC1CCN(CCCN2CCN(C(=O)/C=C/c3ccc(F)c(Cl)c3)CCC2=O)CC1` [Example 199], the IC50 worked out at 1.34 µM.
To `COC(=O)NC1CCCN(CCCN2CCN(C(=O)/C=C/c3ccc(Cl)c(Cl)c3)CCC2=O)C1` (racemic) [Example 256] belongs 1.07 µM.
For `O=C(/C=C/c1ccc(Cl)c(F)c1)N1CCC(=O)N(CCCCN2CCC[C@H](O)[C@@H]2CO)CC1` (racemic) [Example 419], the IC50 came out at 0.25 µM.
To `O=C(/C=C/c1ccc(Cl)c(Cl)c1)N1CCC(=O)N(CCCCN2CC[C@@H](CO)[C@H](O)C2)CC1` (racemic) [Example 471] belongs 0.043 µM; to `CN(C)C1CCN(CCCN2CCN(C(=O)/C=C/c3ccc(Cl)c(Cl)c3)CCC2=O)C1` (racemic) [Example 277, (rac)-1-[(E)-3-(3,4-Dichloro-phenyl)-acryloyl]-4-[3-(3-dimethylamino-pyrollidin-1-yl)-propyl]-[1,4]diazepan-5-one], 1.29 µM.
In the case of `CC1(C)CCN(CCCCN2CCN(C(=O)/C=C/c3ccc(Cl)c(Cl)c3)CCC2=O)CC1O` (racemic) [Example 481], the IC50 came out at 0.009 µM.
For “4-[3-(Cyclohexy-methyl-amino)-ethyl]-1-[(E)-3-(3,4-dichloro-phenyl)-acryloyl]-[1,4]diazepan-5-one [Example 111]”, the IC50 amounted to 0.335 µM.
The figure for `O=C(/C=C/c1ccc(Cl)c(Cl)c1)N1CCC(=O)N(CCCN2CCC3(CC3)C(O)C2)CC1` (stereo not drawn) [Example 261] is 0.009 µM.
In the case of `CC(=O)NC1CCN(CC(O)CCN2CCN(C(=O)/C=C/c3ccc(Cl)c(Cl)c3)CCC2=O)CC1` (racemic) [Example 370], the IC50 was 0.341 µM.
The figure for `O=C(/C=C/c1ccc(Cl)c(Cl)c1)N1CCC(=O)N(CCCCN2CCCCC2)CC1` [Example 9, 1-[(E)-3-(3,4-Dichloro-phenyl)-acryloyl]-4-(4-piperidin-1-yl-butyl)-[1,4]diazepan-5-one] is 0.14 µM; for `O=C(/C=C/c1cccc(Cl)c1)N1CCC(=O)N(CCN2CCC(c3ccccc3)CC2)CC1` [Example 32, 1-[(E)-3-Chloro-phenyl-acryloyl]-4-{2-[4-phenyl-piperidin-1-yl]-ethyl}-[1,4]diazepan-5-one] it is 1.47 µM.
As to `O=C(/C=C/c1ccc(Cl)c(Cl)c1)N1CCC(=O)N(CCN2CCC[C@H]2CO)CC1` [Example 117, (S)-1-[(E)-3-(3,4-Dichloro-phenyl)-acryloyl]-4-[3-(2-hydroxymethyl-pyrrolidin-1-yl)-ethyl]-[1,4]diazepan-5-one], the IC50 is 0.459 µM.
To `CC1(C)CN(CCCN2CCN(C(=O)/C=C/c3ccc(Cl)c(Cl)c3)CCC2=O)CCC1O` (racemic) [Example 257] belongs 0.182 µM; to `CO[C@@H]1CN(CCCCN2CCN(C(=O)/C=C/c3ccc(Cl)c(Cl)c3)CCC2=O)CC[C@@H]1CO` (racemic) [Example 472], 0.418 µM; to `O=C(O)C(CCCN1CCCCC1)N1CCN(C(=O)/C=C/c2ccc(Cl)c(Cl)c2)CCC1=O` (racemic) [Example 180, Lithium; (rac)-2-{4-[(E)-3-(3,4-dichloro-phenyl)-acryloyl]-7-oxo-[1,4]diazepan-1-yl}-5-piperidin-1-yl-pentanoate], 0.319 µM.
To `COC1CCN(CCCN2CCN(C(=O)/C=C/c3ccc(Cl)c(Cl)c3)CCC2=O)CC1` [Example 79, 1-[(E)-3-(3,4-Dichloro-phenyl)-acryloyl]-4-[3-(4-methoxy-piperidin-1-yl)-propyl]-[1,4]diazepan-5-one] belongs 0.706 µM.
To `O=C(/C=C/c1ccc(F)c(Cl)c1)N1CCC(=O)N(CCCN2CCCCC2)CC1` [Example 11, 1-[(E)-3-(3-Chloro-4-fluoro-phenyl)-acryloyl]-4-(3-piperidin-1-yl-propyl)-[1,4]diazepan-5-one] belongs 0.363 µM.
